The values below come from US6008190A, “Cobalt Schiff base compounds” (California Institute of Technology, priority 1995, dated 1999).

The Ki is a measure of affinity in units of concentration, obtained from inhibition or displacement. As usually defined, the % inhibition is the change of the read-out against control, counted positive when it falls. Lower therefore signals little suppression.

Experiment [1] addresses T1, Human a-thrombin (Homo sapiens, UniProt P00734).
T1 construct: Human a-thrombin and the assay agent Spectrozyme; purchased American Diagnostica (Greenwich, Conn.); host or cells: purified blood product
Nature of the experiment: Thrombin inhibition assay, Spectrozyme TH hydrolysis at 406 nm. The class given is biochemical. The settings on record: for thrombin activity after incubation / activity relative to control: 0.1 μM thrombin; for thrombin activity after incubation: 2.5 mM, 24 hours at room temperature, assayed at 25° C.; for activity relative to control: 2.5 mM or similar concentration, 24 hours room temperature, Co(II) compound incubated under inert atmosphere then exposed to air. The method, then:
FIG. 1 depicts the inhibition of thrombin. 3.07×10^-9 M thrombin at 25C was assayed using Spectrozyme TH (American Diagnostics), and the reaction followed at 406 nm using a Hewlett Packard HP8452A diode array spectrophotometer with temperature control. All assays were performed in 10 mM Tris, 10 mM HEPES, 0.1% polyethylene glycol, 0.5 M NaCl, pH 7.8. The Co(III) carboxypropyl(NH3)2 (labeled as Co(carboxypropyl)) was coupled to the active site directed peptide NH2 -GGGdFPR-CO-NIH SEQ ID NO: 1 (labeled as peptide dFPR). The observed inhibition greatly exceeded Co(carboxypropyl)(NH3) )2, the peptide, and Co(III)acacen(NH3)2 Cl (labeled as Co(acacen)).
N-(2-hydroxyethyl)piperazine-N'-2-ethanesulfonic acid (HEPES) was from J. T. Baker Phillipsburg, N.J.). Cobaltous acetate tetrahydrate was obtained from FM Science (Gibbstown, N.J.). Human a-thrombin and the assay agent Spectrozyme (H-D-hexahydrotyrosyl-L-alanyl-L-arginine-p-nitroaniline diacetate) were purchased from American Diagnostica (Greenwich, Conn.). Antithrombotic peptides were manufactured as amides by the Beckman Institute Biopolymer Synthesis group at Caltech using solid phase methods. […] was from Pharmacia (Uppsala, Sweden). Enzyme reactions were followed spectrophotometrically using a photodiode array spectrophotometer. Ultrafiltration materials were from Amicon (Beverly Mass.). HPLC used Vydac reverse phase columns. ^1 H NMR were obtained on a 300 MHz FT-NMR spectrometer. Solvents used include EM Omnisolve MeOH, Omnisolve […] passed over basic alumina to remove residual acid, Fluka (Bubcs. Switzerland) puriss. MeOH and dioxane, and Quantum Chemical (Tuscola, Ill.) absolute EtOH. Distilled water was prepared by a Barnistead Nanopure system. All other solvents were reagent trade.
Thrombin inhibition assay: As with any purified blood product, proper care was taken to avoid the transmission of blood-borne pathogens. Thrombin was taken as received (about 1 ml, at 30 μM in 0.75 M sodium chloride storage solution) and divided into 100 μL aliquots. Each aliquot was diluted to 10 ml. using clean. filtered (2 μm) aqueous 0.75 M NaCl and divided into 1 mL samples. Each sample was stored frozen at -80° C. until ready for use. The protein should not be stored at -20 ° C. as this is too close to the cutectic point for the thrombin-salt mixture and freeze-thaw cycling may damage the protein.
An assay buffer containing 10 mM Tris, 10 mM HEPES, 0.1% polyethylene glycol (PEG 8000) and 500 mM sodium chloride was prepared to pH 8. Following manufacturer's instructions, 5 ,μmole Spectrozyme TH was dissolved in 1.000 mL filtered nanopure water. A series of [Co^III (acacen)(NH3)2 ]Cl solutions was prepared by dissolving 16.6 mg of the compound in 0.75M NaCl and then diluting aliquots to a range of cobalt concentrations from 4.7 mM to 4.7 nM. Both of the purified materials were assayed.
Thrombin was preincubated with inhibitor in the kinetics buffer (total volume of thrombin, buffer, and inhibitor of […]) for the times specified in FIG. 1. After incubation, the substrate, spectrozyme TH was added (8 mL of 5 mM spectrozyme), and the thrombin-catalyzed hydrolysis rates were monitored at 406 nm. The final concentration of thrombin in the experiments was 3 nM, and the concentration of substrate was […]. The inhibitor concentrations are outlined in FIG. 1. The rates of hydrolysis were determined from the linear portion of the saturation-kinetics plots. The percent activity is determined by dividing the rate of spectrozyme hydrolysis with inhibitor by the rate of hydrolysis without inhibitor and multiplying by 100.
A vial of thrombin prepared as above was thawed in warm water. 100 μL aliquots were added to 100 μL, samples of the cobalt acacen solutions. One 100 μL aliquot of thrombin solution was diluted with 100 μL 0.75M NaCl to be used as a control. Samples were incubated as needed before assay. […]

In experiment [2] the target is T2, Thermolysin (Bacillus thermoproteolyticus, UniProt P00800). The settings on record: incubated with 5 mM inhibitor, HEPES pH 7.0, thermolysin 5×10^-8 M, cobalt inhibitor 1.25×10^-5 M. As to the method: Thermolysin (2,500,000 units, Calbiochem) was dissolved in 20 mL of Tris buffer (pH 7.2, 0.1 M, 2.5 M NaBr. 0.01 M CaCI2) and stored at 4° C.; enzyme concentration was determined by using E1%^280 =7.65 and a molecular weight of 34,600. This solution was further purified using gel filtration chromatography on an FPLC Using a Superdex 75 column (Pharmacia) equilibrated with 0.1 M Tris, 0.1 M NaBr, 0.01 CaCI, pH 7.2. This stock solution was stored at 4C. N-[3-(2-furyl)acryloyl]glycyl L-leuciniamide (FAGLA) was obtained from Sigma as the thermolysin substrate. A stock solution of FAGLA (4.0 mM) was prepared by dissolving the substrate in dimethylforthamide (DMF) and diluting it with buffer to a final concentration of 0.1 M Tris, 0.1 NaBr and 10 mM CaCl2, pH 7.0 (final concentration of DMF was 2.5%; sec Feder et al., Biochem. 9:2784-2791 (1970)). For all assays, the concentration of enzyme and substrate was 50 nM and 2.0 mM respectively. The peptidase activity of thermolysin was determined by following the decrease in absorption at 346 due to the enzymatic hydrolysis of FAGLA. Initial velocities were determined for ≤10% of the reaction.
T2 sequence (P00800 233-548): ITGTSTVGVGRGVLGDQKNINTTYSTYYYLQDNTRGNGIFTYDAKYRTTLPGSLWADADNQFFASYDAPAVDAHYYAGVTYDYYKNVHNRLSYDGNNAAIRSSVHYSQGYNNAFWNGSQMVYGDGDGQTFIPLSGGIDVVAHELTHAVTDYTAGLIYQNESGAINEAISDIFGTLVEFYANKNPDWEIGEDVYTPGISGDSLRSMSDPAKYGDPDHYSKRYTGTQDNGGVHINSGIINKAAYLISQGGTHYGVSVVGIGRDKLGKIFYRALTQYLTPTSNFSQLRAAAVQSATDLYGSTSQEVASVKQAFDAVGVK
Thermolysin (2×10^-5 mol) was incubated with [Co(III)acacen(NH3)2 ]Cl (5 mM) in HEPES buffer (pH 7.0, 0.01 M, 0.005 M CaCl2).
Stock solution of thermolysin was mixed with the cobalt compound dissolved in 0.1 M Tris, 0.1 M NaBr, 0.01 CaCl2, pH 7.2 (run buffer) to yield a final enzyme concentration of […] and a cobalt concentration of 2.5 mM. These solutions were incubated at 25C or 37C for several hours along with a control lacking cobalt compound. Periodically […] aliquots of these solutions were assayed for residual enzyme activity by their addition to a cuvette contain […] of FAGLA stock Solution, and following the absorption decrease at 346 nm as described above. All enzyme assays were performed at 25C.

In experiment [3] the target is T2, Thermolysin. The source says:
The resulting solution was transferred into the Tris running buffer using a PD-10 column (Pharmacia), and was characterized.

Experiment [4] deals with thrombin (Homo sapiens, UniProt P00734). Conditions: initial estimate for two separate samples. As to the method: The [Co(III)acacen(NH3)2 ]CI experiments were repeated for a range of cobalt concentrations from 2.4 mM to 2.4 nM after at 12 hour incubation at 25C.
Experiment [5] is described as follows: Axial ligand exchange of ammonia for imidazole. The class given is physicochemical. The settings on record: in water with excess imidazole, 25° C. From the text: In a preferred embodiment, the cobalt compounds find use in the inhibition of proteins and enzymes of tumor cells. As outlined above, Co(III) "acacen" compounds can exchange an axial ligand for a different one by a dissociative mechanism with the slow loss of one axial ligand to form a five coordinate intermediate, followed by binding to another suitable ligand. For most cobalt complexes, ligand exchange is a slow process because there is a large loss of ligand field stabilization energy when a ligand is removed from an octahedral d^6 complex (see Huheey et al., Inorganic Chemistry: Principles of Structure and Reactivity, 4th Ed. HarperCollins. N.Y., chapter 13). Generally, the exchange is slow; for example, [Co(III)(acacen)(NH3)2 ]Cl in water with excess imidazole exchanges ammonia for imidazole with a half-life under an hour at 25° C., with the rate of exchange increasing with temperature. However, reduction to cobalt(II) puts an electron into the antibonding dz2 orbital, labilizing the axial ligands. Typical one-electronic reduction potentials with irreversible loss of an axial ligand are around -360 mV vs NHE, (Darbieu et al., Transition Met. Chem., 7:149 (1982)). This property may be exploited as a "redox switch" to control the activity of the cobalt compound. […]

In experiment [6] the target is T3, Bovine carbonic anhydrase (Bos taurus, UniProt P00921).
T3 construct: purchased Calbiochem
T3 sequence (P00921 whole entry): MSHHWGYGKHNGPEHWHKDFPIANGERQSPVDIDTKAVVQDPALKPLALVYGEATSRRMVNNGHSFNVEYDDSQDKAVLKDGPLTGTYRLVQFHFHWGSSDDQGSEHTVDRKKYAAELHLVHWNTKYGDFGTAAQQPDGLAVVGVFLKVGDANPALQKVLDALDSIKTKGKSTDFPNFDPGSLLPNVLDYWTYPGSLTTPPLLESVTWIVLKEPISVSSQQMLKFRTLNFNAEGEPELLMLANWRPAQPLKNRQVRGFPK
Nature of the experiment: Inhibition of carbonic anhydrase, p-nitrophenylacetate substrate. The class given is biochemical. Conditions: for % inhibition of CA: inert atmosphere, Tris pH 8. As to the method:
Bovine carbonic anhydrase (20 mg 6.7×10^-7 mol, Calbiochem) was dissolved in 0.5 mL Tris buffer (pH=8, 0.05 M). To this solution was added 30 mg of Co(II)hydroxypropyl acacen (30 mg, 7.6×10^-5 mol) dissolved in 0.5 mL of H2 O. This solution was incubated for 48 hours. The excess cobalt complex was separated from the protein using a PD-10 gel filtration column equilibrated with Tris buffer (pH 8, 0.05 M). This enzyme, which was incubated with the Co(III) complex, retained 100% of its activity.
Two samples of bovine carbonic anhydrase (30 mg, 1×10^-6 mol) were dissolved in 3 mL of degassed Tris buffer (pH 8, 0.05 M). To one of the samples was added Co(II)hydroxypropyl acacen (30 mg, 9×10^-5mol). The other sample of bovine carbonic anhydrase served as the control. The solutions were incubated under inert atmosphere (glove box) and a 1 mL aliquot was removed from each sample after 48 and 96 hours of incubation. The protein was then exposed to air and the excess Co(II)hydroxypropyl acacen separated from the protein using a PD-10 gel filtration column (Pharmacia) equilibrated with Tris buffer (pH 8, 0.05 M). The enzymatic activity of the protein was assayed using p-nitroplhenylacetate as the substrate (Pocker et al., Biochem. 6:668-678 (1967)).

Where two headings read alike, the source gives them in different places. Where a SMILES comes first, the peptide text is derived from it. [ ]: non-standard residue; d: D form.

Turning to `CC(=O)C=C(C)NCCNC(C)=CC(C)=O` [cobalt-free ligand, acetylacetone etlhylenediamine], the “thrombin activity after incubation” value in experiment [1] is given as “no effect”.
As to `N=C(N)NCCC[C@H](NC(=O)[C@@H]1CCCN1C(=O)[C@@H](Cc1ccccc1)NC(=O)CNC(=O)CNC(=O)CN)C(N)=O` [(Gly)3 dPhePioArg, reference compound] (H-GGG[dF]PR-NH2), the Ki in experiment [1] was around 209 µM.
On to `CC([O-])=CC(C)=NCCN=C(C)C=C(C)[O-].N.N.[Cl-].[Co+3]` [[Co(III)acacen(NH3)2]Cl], for which the “% inhibition” value in experiment [2] (45 minutes incubation) came out at 46.2%; in experiment [2] (190 minutes incubation) it was 63.9%; in experiment [2] (322 minutes incubation), 77.7%. The “loss of enzyme activity due to irreversible inactivation by the cobalt complex” value in experiment [3] (5 mM cobalt complex, 10 μM thermolysin, overnight at 25C in presence of 50 μM phosphoramidon, after removal of the inhibitor) is listed as “no detectable loss of enzyme activity”. In addition, the “cobalt complexes bound to the enzyme” value in experiment [3] (active enzyme, active site protected by phosphoramidon) was “two”. Besides, the “equivalents of the cobalt compound bound for each enzyme molecule” value in experiment [3] (thermolysin completely inactivated by the cobalt complex) is “three”. The “activity relative to control” value in experiment [1] was 0%. Also, the “thrombin activity after incubation” value in experiment [1] was “completely inactive”. Also, the “lowest cobalt concentration found to inhibit the protein” value in experiment [1] (range 2.4 mM to 2.4 nM, 12 hour incubation at 25C) was 24 µM. Moreover, the “inhibition at lower incubation temperature” value in experiment [1] (range of cobalt concentrations, 3 hours at 5C, activity determined at 25C) was “Partial inhibition”. Moreover, the cobalts per enzyme in experiment [4] was 5-8. Besides, in experiment [5], the “half-life of exchange of ammonia for imidazole” value is listed as “under an hour”.
With “[Co(III)hydroxypropylacacen(NH3)2 ]CH3 COO [Co(III) complex]”, the “enzyme activity retained after incubation” value in experiment [6] (incubated 48 hours, Tris buffer pH 8, excess complex removed by gel filtration) stood at 100%.
Turning to Co(II)hydroxypropyl acacen, the “% inhibition of CA” value in experiment [6] (48 hours incubation) worked out at 33.8%; in experiment [6] (96 hours incubation), 43.2%. For the same compound, the “activity relative to control” value in experiment [1] is on record as 42%.
